Results: EP0063525A1, “Dibenzazepine tetracyclic derivatives, process for their preparation and pharmaceutical compositions containing them” (CENTRE NATIONAL DE LA RECHERCHE SCIENTIFIQUE (CNRS), priority 1981, dated 1982)
Where two headings read alike, the source gives them in different places.

Tests used:
[1] = acute toxicity in the mouse, intraperitoneal; assay type: in vivo, Souris; conditions: mouse, in vivo, ip, voie intrapéritonéale; for LD50 at 48 h: souris femelles, read-out: DL 50; for mortality at 48 h: read-out: Mortalité %
Excerpt: (§1) Les produits ont été administrés par voie intrapéritonéale à des souris femelles dont le poids variait de 18 à 30 g.
(§2) Les animaux injectés ont été maintenus dans une salle thermostatée, nourris et abreuvés à volonté.
(§3) La mortalité a été relevée à 1 heure, 4 heures, 24 heures et 48 heures.

[2] = tested on: souris femelles; assay: acute toxicity in the mouse, intraperitoneal; assay type: in vivo; conditions: voie intrapéritonéale; for Mortalité en 1 heure / Mortalité en 48 h. / Mortalité en 48 heures: dead mice of the group
Excerpt: as §1, §2, §3

[3] = tested on: Souris; assay: antireserpine activity: reserpine hypothermia; assay type: in vivo; conditions: réserpine 5 mg/kg i.p. 17 h before
Method: On note ensuite les températures témoins (réserpine), puis les températures 1, 2, 3 et 4 heures après l'administration des produits étudiés.
Les animaux sont répartis en lots de 4 animaux et reçoivent par voie intrapéritonéale la réserpine à une dose de 5 mg/kg. 17 heures après cette injection, on mesure la température corporelle de l'animal à l'aide d'une sonde thermocouple introduite dans le rectum; chaque lot reçoit ensuite la substance par voie intrapéritonéale. Le lot témoin reçoit la même quantité de solvant et par la même voie. La température corporelle est ensuite mesurée toutes les heures pendant 4 heures.
Les résultats sont rassemblés dans un tableau récapitulatif-où sont indiqués : • - la température moyenne pour chaque lot relevée 17 heures après l'injection de la réserpine, • - la moyenne des variations de température pour chaque lot relevées 1,2, 3 et 4 heures après l'injection de la substance étudiée, • - la somme des variations de températures pendant 4 heures, • - le pourcentage d'augmentation de la température pour chaque produit par rapport aux témoins.

[4] = ip, 4 h, product i.p. 50 mg/kg, read-out: % d'augmentation par rapport aux témoins
[5] = ip, 4 h, product i.p. 150 mg/kg, read-out: % d'augmentation par rapport aux témoins

CN(C)CCCN1c2ccccc2C2C(c3ccccc3)=NN(c3ccccc3)C2c2ccccc21 (stereo not drawn) [compound 8, (y-diméthylaminopropyl)-8 diphênyl-1,3 tétrahydro-1,3a,8, 12b(dibenzo [b,f]pyrazolo [3,4-d])azépine]
LD50 at 48 h [1]: > 250 mg/kg
mortality at 48 h ([1]; 5 mg/kg): 0%
mortality at 48 h ([1]; 50 mg/kg): 0%
mortality at 48 h ([1]; 100 mg/kg): 0%
mortality at 48 h ([1]; 150 mg/kg): 20%
mortality at 48 h ([1]; 250 mg/kg): 0%
Mortalité en 1 heure ([2]; 5 mg/kg): 0
Mortalité en 48 h. ([2]; 5 mg/kg): 0
Mortalité en 1 heure ([2]; 50 mg/kg): 0
Mortalité en 48 h. ([2]; 50 mg/kg): 0
Mortalité en 1 heure ([2]; 100 mg/kg): 0
Mortalité en 48 h. ([2]; 100 mg/kg): 0
Mortalité en 1 heure ([2]; 150 mg/kg): 1
Mortalité en 48 h. ([2]; 150 mg/kg): 1
Mortalité en 1 heure ([2]; 250 mg/kg): 0
Mortalité en 48 h. ([2]; 250 mg/kg): 0

CN(C)CCN1c2ccccc2-c2onc(-c3ccccc3)c2-c2ccccc21 [compound 17, (β-diméthylaminoéthyl)-8 phényl-3 (dibenzo [b,f]isoxazolo [4,5-d]) 8H azépine]
change in vivo at 50 mg/kg [3, 4]: 0%
change in vivo at 150 mg/kg [3, 5]: 300%
LD50 at 48 h [1]: 175 mg/kg
mortality at 48 h ([1]; 50 mg/kg): 0%
mortality at 48 h ([1]; 100 mg/kg): 0%
mortality at 48 h ([1]; 150 mg/kg): 0%
mortality at 48 h ([1]; 200 mg/kg): 100%
mortality at 48 h ([1]; 250 mg/kg): 100%
Mortalité en 1 heure ([2]; 50 mg/kg): 0
Mortalité en 48 h. ([2]; 50 mg/kg): 0
Mortalité en 1 heure ([2]; 100 mg/kg): 0
Mortalité en 48 h. ([2]; 100 mg/kg): 0
Mortalité en 1 heure ([2]; 150 mg/kg): 0
Mortalité en 48 h. ([2]; 150 mg/kg): 0
Mortalité en 1 heure ([2]; 200 mg/kg): 5
Mortalité en 48 h. ([2]; 200 mg/kg): 5
Mortalité en 1 heure ([2]; 250 mg/kg): 4
Mortalité en 48 h. ([2]; 250 mg/kg): 5

c1ccc(-c2noc3c2-c2ccccc2Nc2ccccc2-3)cc1 [compound 16, phényl-3 (dibenzo [b,f]isoxazolo [4,5-d]) 8H azépine]
LD50 at 48 h [1]: > 1000 mg/kg
mortality at 48 h ([1]; 50 mg/kg): 0%
mortality at 48 h ([1]; 100 mg/kg): 0%
mortality at 48 h ([1]; 250 mg/kg): 20%
mortality at 48 h ([1]; 500 mg/kg): 0%
mortality at 48 h ([1]; 1000 mg/kg): 0%
Mortalité en 1 heure ([2]; 50 mg/kg): 0
Mortalité en 48 h. ([2]; 50 mg/kg): 0
Mortalité en 1 heure ([2]; 100 mg/kg): 0
Mortalité en 48 h. ([2]; 100 mg/kg): 0
Mortalité en 1 heure ([2]; 250 mg/kg): 0
Mortalité en 48 h. ([2]; 250 mg/kg): 1
Mortalité en 1 heure ([2]; 500 mg/kg): 0
Mortalité en 48 h. ([2]; 500 mg/kg): 0
Mortalité en 1 heure ([2]; 1000 mg/kg): 0
Mortalité en 48 heures ([2]; 1000 mg/kg): 0

CC(CN(C)C)CN1c2ccccc2-c2c(-c3ccccc3)nn(-c3ccccc3)c2-c2ccccc21 (stereo not drawn) [compound 15, (méthyl-2 diméthylamino-3 propyl)-8 diphényl 1,3 dihydro-1,8(dibenzo [b,f]pyrazolo [3 ,4-d]) azépine]
LD50 at 48 h [1]: 175 mg/kg
mortality at 48 h ([1]; 50 mg/kg): 0%
mortality at 48 h ([1]; 100 mg/kg): 0%
mortality at 48 h ([1]; 250 mg/kg): 80%
mortality at 48 h ([1]; 300 mg/kg): 80%
Mortalité en 1 heure ([2]; 50 mg/kg): 0
Mortalité en 48 h. ([2]; 50 mg/kg): 0
Mortalité en 1 heure ([2]; 100 mg/kg): 0
Mortalité en 48 h. ([2]; 100 mg/kg): 0
Mortalité en 1 heure ([2]; 250 mg/kg): 2
Mortalité en 48 h. ([2]; 250 mg/kg): 4
Mortalité en 1 heure ([2]; 300 mg/kg): 0
Mortalité en 48 h. ([2]; 300 mg/kg): 4

c1ccc(C2=NN(c3ccccc3)C3c4ccccc4Nc4ccccc4C23)cc1 (stereo not drawn) [compound 6, diphényl-1,3 tétrahydro-1,3a,8,12b(dibenzo [b,d]pyrazolo[3,4-d])hazépine]
change in vivo at 150 mg/kg [3, 5]: 80%
variation de température T= 2h ([3]; product i.p. 150 mg/kg): +0,7
variation de température T=3h ([3]; product i.p. 150 mg/kg): +0,6
variation de température T=4h ([3]; product i.p. 150 mg/kg): +0,4
LD50 at 48 h [1]: > 750 mg/kg
mortality at 48 h ([1]; 500 mg/kg): 0%
mortality at 48 h ([1]; 750 mg/kg): 0%
Mortalité en 1 heure ([2]; 500 mg/kg): 0
Mortalité en 48 h. ([2]; 500 mg/kg): 0
Mortalité en 1 heure ([2]; 750 mg/kg): 0
Mortalité en 48 h. ([2]; 750 mg/kg): 0

CC(CN(C)C)CN1c2ccccc2C2C(c3ccccc3)=NN(c3ccccc3)C2c2ccccc21 (stereo not drawn) [compound 9, (méthyl-2 diméthylamino-3 propyl)-8 diphényl-1,3 tétrahydro-1,3a, 8, 12b (dibenzo [b, f]pyrazolo [3,4-d])azépine]
change in vivo at 50 mg/kg [3, 4]: 60%
variation de température T= 2h ([3]; product i.p. 50 mg/kg): +0,8
variation de température T=3h ([3]; product i.p. 50 mg/kg): +0,6
variation de température T=4h ([3]; product i.p. 50 mg/kg): +0,1
LD50 at 48 h [1]: > 300 mg/kg
mortality at 48 h ([1]; 150 mg/kg): 0%
mortality at 48 h ([1]; 300 mg/kg): 0%
Mortalité en 1 heure ([2]; 150 mg/kg): 0
Mortalité en 48 h. ([2]; 150 mg/kg): 0
Mortalité en 1 heure ([2]; 300 mg/kg): 0
Mortalité en 48 h. ([2]; 300 mg/kg): 0

c1ccc(C2=NOC3c4ccccc4Nc4ccccc4C23)cc1 (stereo not drawn) [compound 1, phényl-3 trihydro-3a,8,12b (dibenzo [b,f]isoxazolo [4,5-d])azépine]
change in vivo at 15 mg/kg ([3]; ip, 4 h, product i.p. 15 mg/kg, read-out: % d'augmentation par rapport aux témoins): 45%
variation de température T= 2h ([3]; product i.p. 15 mg/kg): +0,5
variation de température T=3h ([3]; product i.p. 15 mg/kg): +0,4
variation de température T=4h ([3]; product i.p. 15 mg/kg): +0,7
LD50 at 48 h [1]: > 100 mg/kg
mortality at 48 h ([1]; 50 mg/kg): 0%
mortality at 48 h ([1]; 100 mg/kg): 0%
Mortalité en 1 heure ([2]; 50 mg/kg): 0
Mortalité en 48 h. ([2]; 50 mg/kg): 0
Mortalité en 1 heure ([2]; 100 mg/kg): 0
Mortalité en 48 h. ([2]; 100 mg/kg): 0

c1ccc(-c2nn(-c3ccccc3)c3c2-c2ccccc2Nc2ccccc2-3)cc1 [compound 12, diphényl-1,3 dihydro-1,8 (dibenzo[b,f]pyrazolo[3,4-d]) azépine]
change in vivo at 50 mg/kg [3, 4]: 10%
variation de température T= 2h ([3]; product i.p. 50 mg/kg): +0,4
variation de température T=3h ([3]; product i.p. 50 mg/kg): +0,3
variation de température T=4h ([3]; product i.p. 50 mg/kg): +0,4
LD50 at 48 h [1]: > 250 mg/kg
mortality at 48 h ([1]; 125 mg/kg): 0%
mortality at 48 h ([1]; 250 mg/kg): 0%
Mortalité en 1 heure ([2]; 125 mg/kg): 0
Mortalité en 48 h. ([2]; 125 mg/kg): 0
Mortalité en 1 heure ([2]; 250 mg/kg): 0
Mortalité en 48 h. ([2]; 250 mg/kg): 0

CC(CN(C)C)CN1c2ccccc2C2ON=C(c3ccccc3)C2c2ccccc21 (stereo not drawn) [compound 4, (méthyl-2 diméthylamino-3 propyl)-8 phényl-3 trihydro-3a, 8, 12b (dibenzo[b,f]-isoxazolo [4,5-d]) azépine]
LD50 at 48 h [1]: 175 mg/kg
mortality at 48 h ([1]; 100 mg/kg): 0%
mortality at 48 h ([1]; 300 mg/kg): 100%
Mortalité en 1 heure ([2]; 100 mg/kg): 0
Mortalité en 48 h. ([2]; 100 mg/kg): 0
Mortalité en 1 heure ([2]; 300 mg/kg): 4
Mortalité en 48 h. ([2]; 300 mg/kg): 4

(γ-diméthylaminopropyl)-8 phényl-1 (chloro-4' phényl)-3 tétrahydro-1,3a, 8,12b(dibenzo[b,f]pyrazolo [3,4-d])azépine [compound 11]
% d'augmentation par rapport aux témoins ([3]; product i.p. 150 mg/kg): 85%
variation de température T= 2h ([3]; product i.p. 150 mg/kg): +0,4
variation de température T=3h ([3]; product i.p. 150 mg/kg): +0,5
variation de température T=4h ([3]; product i.p. 150 mg/kg): +0,7
DL 50 ([2]; souris femelles, 2880 min): >1000 mg/kg
Mortalité % ([2]; 250 mg/kg, 2880 min): 0%
Mortalité en 1 heure ([2]; 250 mg/kg): 0
Mortalité en 48 h. ([2]; 250 mg/kg): 0
Mortalité % ([2]; 450 mg/kg, 2880 min): 0%
Mortalité en 1 heure ([2]; 450 mg/kg): 0
Mortalité en 48 heures ([2]; 450 mg/kg): 0
Mortalité % ([2]; 1000 mg/kg, 2880 min): 0%
Mortalité en 1 heure ([2]; 1000 mg/kg): 0
Mortalité en 48 heures ([2]; 1000 mg/kg): 0

OCCN1CCN(CCCN2c3ccccc3C3ON=C(c4ccccc4)C3c3ccccc32)CC1 (stereo not drawn) [compound 5]
LD50 at 48 h [1]: 125 mg/kg
mortality at 48 h ([1]; 75 mg/kg): 20%
mortality at 48 h ([1]; 125 mg/kg): 40%
mortality at 48 h ([1]; 200 mg/kg): 100%
mortality at 48 h ([1]; 250 mg/kg): 100%
Mortalité en 1 heure ([2]; 75 mg/kg): 1
Mortalité en 48 h. ([2]; 75 mg/kg): 1
Mortalité en 1 heure ([2]; 125 mg/kg): 2
Mortalité en 48 h. ([2]; 125 mg/kg): 2
Mortalité en 1 heure ([2]; 200 mg/kg): 5
Mortalité en 48 h. ([2]; 200 mg/kg): 5
Mortalité en 1 heure ([2]; 250 mg/kg): 5
Mortalité en 48 h. ([2]; 250 mg/kg): 5
